Laboratory results published in patent publication US20240018129A1, “COMPOUNDS AS PU. 1 INHIBITORS” (PEKING UNIVERSITY, priority 2020, published 2024).

Assays:
PU.1 [1] = molecular target: T1, PU.1 (Mus musculus, UniProt P17433); assay: q-PCR of TIM-3 expression in Blast-PU.1 cells (PU.1 inhibition potency); format: cell-based; conditions: 10 μM, Blast-PU.1 cells, 24 h treatment, q-PCR
T1 construct: EGFP (from 'PU.1-EGFP-vector'); expressed in transfected cells
Text: An acute T cell lymphoblastic leukemia (T-ALL) disease model was used to evaluate the effect of the newly synthesized compounds on PU.1 inhibition. Pten, a famous tumor suppressor gene, was […] deleted in mouse hematopoietic stem cells and their differentiated progeny, and this would eventually lead to a progressive T-ALL in about two months from born. It is believed that immune checkpoint T cell immunoglobulin mucin-3 (TIM-3), a surface marker for the isolation of pure leukemia-initiating cells (LICs), is transcriptionally regulated by transcription factor PU.1 in the Pten-null T-ALL model. Therefore, the expression level of TIM-3 was detected and quantified to characterize the inhibition potency of the compounds after 24 h treatment of graded concentrations of compounds. Blast cells were transfected with either PU.1-EGFP-vector or EGFP-vector to yield stable cell lines blast-PU.1 and blast-EGFP, respectively. These cell lines were used for compound testing in vitro. Compounds DB1976 and DB2115 were tested as well for comparison. Blast-PU.1 and blast-EGFP are the ideal cell lines for compounds testing in vitro, since they are T-ALL blast cells with […] TIM-3 and PU.1 expression level.

other ETS family numbers = conditions: cited from earlier work
NASH diet-induced NASH = NASH diet-induced NASH model; format: in vivo, mouse; conditions: 2.5mpk i.p. daily for 6 weeks
Text: (§1) Methods: To evaluate the potential therapeutic effects of compound I-1 on liver disorders, including liver fat steatosis and accumulation, nonalcoholic fatty liver disease (NAFLD), nonalcoholic steatosis hepatitis (NASH), and liver fibrosis, three mice models (C57BL/6, male, 8 weeks old) were used. (I) NASH diet (Code.TD.160785, ENVIGO, USA)-induced NASH model: All mice were fed with NASH diet for 10 weeks. Mice were then randomly distributed into three groups, and each group was assigned to be injected daily with vehicle, compound I-1 (2.5mpk or 5mpk, i.p.), or DB1976 (2.5mpk, i.p, as a positive control) for another 6 weeks on continuous NASH diet. A group with normal regular diet was treated with vehicle as health control. (II) High-fat diet (HFD) combinate with CCl4 (lower dose)—induced NASH model. Mice were fed with normal regular diet or HFD (kcal fat 60%—D12492, research diets) for 10 weeks, then the HFD mice were divided into two groups randomly based on the rule of minimum weight differences. Each group was assigned to be injected with CCl4 (25% v/v in olive oil, 0.5 mL/kg body weight) or pure olive oil (i.p.) twice a week for 4 weeks. Compound 1-1 or vehicle (saline) were injected (i.p.) once daily for 4 weeks at the same time with CCl4 under continuous HFD. (III) CCl4 (higher dose)—induced liver fibrosis model. Liver fibrosis was induced by CCl4 injection (20% v/v in olive oil, 10 mL/kg body weight) twice a week for 6 weeks, compound I-1 or vehicle are also injected (i.p.) once daily for 6 weeks at the same time with CCl4 application. Ail the mice in the above-mentioned three models were observed daily. After the last day of treatment of all the models, mice were fasted overnight and euthanized. Serum was collected after centrifuging of the whole blood at 4 degrees, and blood biochemistry parameters were tested through automatic biochemical instrument (BS-240VET, Mindray). Part of liver tissues were fixed with paraformaldehyde, embedded with paraffin, and then sliced for H&E or Sirius red staining to check pathological features, and NAFLD scores. Kleiner, D. E. et al. Hepatology 41, 1313-1321, doi:10.1002/hep.20701 (2005). Part of liver tissues were used fresh, embedded in optimum cutting temperature compound, and sectioned. The sections were stained with 0.5% oil red 0 according to standard procedures after fixed in 4% paraformaldehyde in PBS. Another part of liver tissues were collected and stored in −80° C. after liquid nitrogen quick-freezing, RNA. isolation (Code.R6934, OMEGA., USA), first cDNA reverse (Code.AT341, TransGen, China), SYBR mix (Code.AQ601, TransGen, China) for Q-PCR (LightCycler®96, Roche) to verify genes mRNA level, such as, fibrosis-related genes, Col1a1 and Col1a2; inflammation-related genes, IL-6 and IL-1β.

[2] = system: bleomycin-induced skin fibrosis; assay: bleomycin-induced skin fibrosis, preventive and therapeutic models; format: in vivo, mouse
Experimental: Methods: To evaluate the preventive and therapeutic effects of compound I-1 on skin fibrosis, bleomycin was used to establish two animal models of skin fibrosis with different drug intervention (6-8 weeks, C57BL/6, male). Skin fibrosis was induced by local injection of bleomycin (0.5 mg/mL, 0.1 ml/mouse) in a skin defined area (˜1 cm^2), where the hair was removed in advance, at the upper back every other day. Subcutaneous saline injections served as controls. (I) Preventive model of bleomycin-induced skin fibrosis: Compound I-1, positive control DB1976, or vehicle (saline) were injected i.p. simultaneously with bleomycin for 4 weeks (FIG. 3a). (II) Therapeutic model of bleomycin-induced skin fibrosis: Mice were pre-charged with bleomycin for 3 weeks to induce skin fibrosis, then treated with compound I-1, positive control DB1976, or vehicle (saline) for another 3 weeks, total time is 6 weeks after the first bleomycin treatment (FIG. 30. After the last day of treatment of both models, mice were fasted overnight and euthanized. Part of the skin was fixed with paraformaldehyde after fully flat on a foil, embedded with paraffin, and then sliced for H&E, Sirius red and Masson staining to check pathological features. The epidermal thickness of each sample was calculated quantitatively with image J. Another part of skin was collected and stored at −80° C. after liquid nitrogen quick-freezing, RNA isolation (Code.R6934, OMEGA, USA), first cDNA reverse (Code.AT341, TransGen, China), SYBR mix (Code.AQ601, TransGen, China) for Q-PCR (LightCycler® 96, Roche) to verify several fibrosis-related genes mRNA level, such as, Col1a1 and Col1a2.

[3] = system: bleomycin-induced pulmonary fibrosis; assay: bleomycin-induced pulmonary fibrosis, preventive and therapeutic models; format: in vivo, mouse; conditions: preventive model, 5mpk i.p. for 4 weeks after single bleomycin injection
Experimental: Methods: To evaluate the preventive and therapeutic effects of compound I-1 on pulmonary fibrosis, bleomycin was used to establish two animal models of pulmonary fibrosis with different drug intervention (6-8 weeks, C57BL/6, male). Bleomycin (0.025U, Code.D11063, OKA, China) was injected by a single intratracheal application. Equal volumes of sterilized saline served as a control. (I) Preventive model of bleomycin-induced pulmonary fibrosis. Compounds compound I-1, positive control DB1976, or vehicle (saline) were treated (injected intraperitoneally, i.p.) immediately after single bleomycin injection for 4 weeks (FIG. 4a). (II) Therapeutic model of bleomycin-induced pulmonary fibrosis. Mice were pre-charged with bleomycin for 11 days to induced pulmonary fibrosis, then treated with compounds compound I-1, positive control DB1976, or vehicle (saline) for 17 days, total time is 4 weeks after bleomycin treatment (FIG. 4h). After the last day of treatment of both models, mice were fasted overnight and euthanized. A part of lung was fixed with paraformaldehyde, embedded with paraffin, and then sliced for H&E and Sirius red staining to check pathological features, and Ashcroft scores. Hubner, R. H. et al. Biotechniques 44, 507-511, 514-507, doi:10.2144/000112729 (2008). Another part of lung were collected and stored in −80° C. after liquid nitrogen quick-freezing, RNA isolation (Code.R6934, OMEGA, USA), first cDNA reverse (Code.AT341, TransGen, China), SYBR mix (Code.AQ601, TransGen, China) for Q-PCR (LightCycle96, Roche) to verify several fibrosis-related genes mRNA level, such as, Col1a1 and Col1a2.

PU.1 [4] = molecular target: PU.1 (Homo sapiens, UniProt P17947); conditions: cited from earlier work
NASH = conditions: in vivo; Liu et al., J Hepatol 2020; cited from earlier work
[5] = system: HFD/CCL4-induced NASH and liver fibrosis; assay: High-fat diet (HFD) combined with CCl4 (lower dose)-induced NASH model; format: in vivo, mouse
Text: as §1

[6] = system: skin, liver and lung fibrosis; conditions: Wohlfahrt et al., Nature 2019; cited from earlier work
[7] = system: T-ALL blast cells and TIM-3-high LICs; assay: Pten-null T-ALL mouse model, compound I-1 and/or rapamycin treatment
Experimental: To generate a Pten-null T-ALL mouse model, Pten was 40% deleted in mouse fetal liver hematopoietic stem cells (HSCs), followed by PI3K-AKT pathway activation, hematopoietic disorder and T-ALL development. In the T-ALL crisis stage, T-ALL blasts and LICs would infiltrate mouse hematopoietic organs and non-hematopoietic organs.
After treatment, hematopoietic and non-hematopoietic organ morphology of the mice was analyzed using hematoxylin-eosin (H&E) staining.

[8] = preventive model, 5mpk i.p., 4 weeks

## N=C(N)c1ccc2nc(-c3ccc(NC(=O)[C@H]4CCCN4C(=O)[C@H]4CCCN4C(=O)c4ccc(-c5nc6ccc(C(=N)N)cc6[nH]5)cc4)cc3)[nH]c2c1 [Compound I-2, (R)-1-((4-(6-carbamimidoyl-1H-benzo[d]imidazol-2-yl)benzoyl)-D-prolyl)-N-(4-(6-carbamimidoyl-1H-benzo[d]imidazol-2-yl)phenyl)pyrrolidine-2-carboxamide]
PU.1 [1]
  inhibition of TIM-3 expression: no obvious inhibition

## N=C(N)c1ccc2nc(-c3ccc(NC(=O)[C@@H]4CCCN4C(=O)[C@H]4CCCN4C(=O)c4ccc(-c5nc6ccc(C(=N)N)cc6[nH]5)cc4)cc3)[nH]c2c1 [Compound I-3, (S)-1-((4-(6-carbamimidoyl-1H-benzo[d]imidazol-2-yl)benzoyl)-D-prolyl)-N-(4-(6-carbamimidoyl-1H-benzo[d]imidazol-2-yl)phenyl)pyrrolidine-2-carboxamide]
PU.1 [1]
  inhibition of TIM-3 expression: no obvious inhibition

## N=C(N)c1ccc2nc(-c3ccc(-c4nc5ccc(C(=N)N)cc5[nH]4)[se]3)[nH]c2c1 [DB1976, reference compound]
Other ETS family numbers
  activity on other ETS family numbers: inhibitory activity
NASH diet-induced NASH
  metabolic disturbance by NASH diet (body weight, liver fat, ALT, LDL-C, TC, IL-6, IL-1β, Col1a1, Col1a2): potently alleviated
[2]; preventive model, 5mpk i.p. simultaneously with bleomycin for 4 weeks, vs bleomycin/vehicle
  skin fibrosis progress: significantly prevented
[2]; [8]
  collagen deposition: reducing
  epidermal thickness: reducing
[2]; preventive model, 5mpk i.p., 4 weeks, skin
  mRNA level of Col1a1 and Col1a2: decreasing
[2]; therapeutic model, 3 weeks bleomycin then 3 weeks treatment, 5mpk
  bleomycin-induced skin fibrosis: significantly alleviated and reversed
[3]
  pulmonary fibrosis progress (staining, Ashcroft scores, collagen deposition, Col1a1, Col1a2 mRNA): significantly prevented
PU.1 [4]
  potency as PU.1 inhibitor: limited potency
NASH
  effects on NASH progress (liver steatosis, inflammation, fibrosis, glucose homeostasis): beneficial effects
[5]; fasting serum, i.p. once daily for 4 weeks
  serum triglyceride (TG) and total-cholesterol (TC): reduced
[5]; i.p. once daily for 4 weeks with CCl4 under HFD
  body weight, gWAT and iWAT weight radio increased by HFD/CCL4: reversed
[5]; mouse, in vivo
  collagen deposition (sirius red staining) and liver mRNA level of Col1a1 and Col1a2: reduced
  liver fibrosis induced by HFD/CCL4 application: significantly alleviated
[6]
  skin, liver and lung fibrosis: alleviated

## CO[C@H]1C[C@@H]2CC[C@@H](C)[C@@](O)(O2)C(=O)C(=O)N2CCCC[C@H]2C(=O)O[C@H]([C@H](C)C[C@@H]2CC[C@@H](O)[C@H](OC)C2)CC(=O)[C@H](C)/C=C(\C)[C@@H](O)[C@@H](OC)C(=O)[C@H](C)C[C@H](C)/C=C/C=C/C=C/1C [rapamycin, reference compound]
[7]; after two days' treatment at blast crisis stage, without treatment 96.4%
  proportion of blasts in bone marrow: 13.2%
[7]; after two days' treatment, bone marrow, without treatment 33.5%
  TIM-3 high LICs proportion: 22.2%
